Patent US20240327852A1, “METHODS OF TRANSFORMATION” (SYNGENTA CROP PROTECTION AG, priority 2019, published 2024)

Experiments:
Assay type in all cases: in vivo
[1] = tested on: soybean (Glycine max) explants; assay: Comparison of greenhouse selection effectiveness between BSU and Ecomazayr for ALS selectable marker
Description: (§1) The explants were transplanted to soil for further selection and development of transgenic shoots after immersed in Soy2 medium for 2 day and in Soy2 medium with 2 μM bensulfuron-methyl for 5 days. The selection is performed for three weeks in GH by application with various concentrations of bensulfuron-methyl using mounted cotton ball or daily liquid spay methods. The recovered shoots from each treatment were subjected for Taqman assay to confirm the transgenic frequency. The application solution contains bensulfuron-methyl, 1 g/L MES and BAP (2 mg./L for first week, and 1 mg/L for second and third weeks, or 2 mg/L or 1 mg/l for three weeks). Alternatively, the transplanted explants in soil can be directly spayed with selection solution containing commercial herbicide Ecomazayr (1-8 μM isopropylamine salt of imazapyr), 1-2 mg/L BAP and 1 g/L MES for 3 weeks.
An experiment was conducted to compare the selection effectiveness in greenhouse between BSU and commercial herbicide Ecomazayr for ALS selectable marker using current transformation method.

[2] = tested on: soybean (Glycine max) explants; assay: Semi-in-planta soybean transformation, greenhouse glyphosate selection for EPSPS marker, Taqman assay of recovered shoots; settings: 3 weeks greenhouse selection, 48 explants
Description: (§2) Sterilized mature soybean (Glycine max) seeds were used. Prior to Agrobacterium inoculation, seeds were soaked in sterilized H2O or liquid medium Soy1 for overnight (12-18 hours) at 22-24° C. Liquid medium Soy 1 contains 3.1 g/L Gamborg's B5 basal medium and 2 mg/L BAP
(§3) The seed coat was removed from the soaked seed. One of the cotyledons and both primary leaves were carefully removed and discarded. Next, the region containing the epicotyl, apical meristem and the cotyledonary node were wounded by making several cuts with the sharp end of scalpel blade.
(§4) Agrobacterium tumefaciens strain [Chry5d3 recA−] was used. The Agrobacterium harbored a binary vector containing a selectable marker and gene of interest, specifically construct 23093 containing EPSPS selectable marker driven by translation elongation factor EF-1 alpha/Tu promoter and AmCyan gene driven by Cestrum Yellow leaf curl virus promoter (prCMP), construct18891 containing codon-optimized Acetolactate synthase (ALS) double mutant (P191A, W568L) from Nicotiana tabacum for soybean and AmCyan gene driven by prCMP, and construct 22296 containing codon-optimized Acetolactate synthase (ALS) double mutant (P191A, W568L) from Nicotiana tabacum for soybean driven by translation elongation factor EF-1 alpha/Tu promoter, including the first intron and neighboring 5′-UTR, from soybean (Williams 82) prGmEF-02. Agrobacterium culture was streaked from −80° C. from glycerol stock onto YP plates containing 100 mg/L ampicillin and 500 mg/L spectinomycin appropriate antibiotics and grown in a 23° C. incubator. Before inoculation with explants, Agrobacterium cells were collected from the plate and were uniformly suspended in liquid infection medium SoyInf in a sterile disposable 50 ml centrifuge tube and diluted to OD A660 of approximately 0.3 to 0.6. A final concentration of 40-80 mg/L (200-400 uM) acetosyringone was added to induce virulence gene expression. Dithiothreitol (DTT) was added to a final concentration of 150 μg/ml. SoyInf contains 1.1 g/L MS basal salt mixture, 20 g/L sucrose, 10 g/L glucose, 4 g/L MES, 1 ml/L Gamborg's B5 vitamins (1000×) and 2 mg/L zeatin riboside.
(§5) The wounded explants were immediately infected with Agrobacterium by immersing them with the Agrobacterium suspension, and then incubated for 18 hours in dark at room temperature. After infection, the explants were removed from the Agrobacterium suspension and transferred to petri dishes for co-cultivation in an airtight plastic container. The co-cultivation plates were incubated for 3-5 days at 22±1° C. in the dark, with explants placed adaxial side up.
After 2 day in Soy2 medium and 5 days in Soy2 medium with 100 μM glyphosate, the explants were transplanted to soil for further selection and development of transgenic shoots. The selection is performed for three weeks in GH by application with various concentrations of glyphosate using mounted cotton ball or daily liquid spay methods. The recovered shoots from each treatment were subjected for Taqman assay to confirm the transgenic frequency. The application solution contains glyphosate, 1 g/L MES and BAP (2 mg./L for first week, and 1 mg/L for second and third weeks, or 2 mg/L or 1 mg/l for three weeks).
To obtain an optimal selection conditions and methods for EPSPS selection, a side-by-side comparison experiment was conducted. Transgenic events can be recovered without selection in Greenhouse at 18% transformation frequency with more than 80% escape rate. […] Similar results can also be achieved by daily spay of 150 μM or more of glyphosate with few escapes.

[3] = tested on: soybean (Glycine max) explants; assay: Semi-in-planta soybean transformation, greenhouse bensulfuron-methyl selection for ALS marker, Taqman assay of recovered shoots; settings: for Escape rate / Number of events / TF: 3 weeks greenhouse selection
Description: as §2, §3, §4, §5, §1
To obtain an optimal selection conditions and methods for ALS selection, a side-by-side comparison experiment was conducted. Transgenic events can be recovered without selection in Greenhouse at more than 18% transformation frequency with 73% escape rate. […] By using cotton ball method for application of bensulfuron-methyl, high transformation frequency (˜40%) with high single copy event rate (50%) was obtained. […]

[4] = greenhouse selection 1 μM imazapyr, 56 explants
[5] = greenhouse selection 2 μM imazapyr, 56 explants
[6] = greenhouse selection 3 μM imazapyr, 56 explants
[7] = greenhouse selection 4 μM imazapyr, 56 explants
[8] = greenhouse selection 5 μM imazapyr, 56 explants
[9] = greenhouse selection 6 μM imazapyr, 56 explants
[10] = greenhouse selection 7 μM imazapyr, 52 explants
[11] = greenhouse selection 8 μM imazapyr, 54 explants
[12] = cotton ball, 3 μM bensulfuron-methyl, 40 explants
[13] = cotton ball, 6 μM bensulfuron-methyl, 48 explants
[14] = cotton ball, 9 μM bensulfuron-methyl, 48 explants
[15] = daily spray, 3 μM bensulfuron-methyl, 48 explants
[16] = daily spray, 4 μM bensulfuron-methyl, 48 explants
[17] = daily spray, 5 μM bensulfuron-methyl, 48 explants
[18] = daily spray, 6 μM bensulfuron-methyl, 48 explants
[19] = daily spray, 7 μM bensulfuron-methyl, 48 explants
[20] = daily spray, 8 μM bensulfuron-methyl, 48 explants
[21] = daily spray, 9 μM bensulfuron-methyl, 48 explants
[22] = daily spray, 10 μM bensulfuron-methyl, 48 explants
[23] = greenhouse selection 3 μM BSU, 56 explants

SMILES: CC(C)C1(C)N=C(c2ncccc2C(=O)O)NC1=O (stereo not shown) [imazapyr]
- selection effectiveness in greenhouse ([1]; ALS selectable marker, recovery of ALS transgenic plants): as effective as BSU
- Number of escapes [1, 4]: 1
- Number of events [1, 4]: 15
- Transformation frequency (%) [1, 4]: 26.8%
- Number of escapes [1, 5]: 0
- Number of events [1, 5]: 12
- Transformation frequency (%) [1, 5]: 21.4%
- Number of escapes [1, 6]: 0
- Number of events [1, 6]: 20
- Transformation frequency (%) [1, 6]: 35.7%
- Number of escapes [1, 7]: 0
- Number of events [1, 7]: 14
- Transformation frequency (%) [1, 7]: 25.0%
- Number of escapes [1, 8]: 0
- Number of events [1, 8]: 8
- Transformation frequency (%) [1, 8]: 14.3%
- Number of escapes [1, 9]: 0
- Number of events [1, 9]: 10
- Transformation frequency (%) [1, 9]: 17.9%
- Number of escapes [1, 10]: 0
- Number of events [1, 10]: 10
- Transformation frequency (%) [1, 10]: 19.2%
- Number of escapes [1, 11]: 0
- Number of events [1, 11]: 10
- Transformation frequency (%) [1, 11]: 18.5%

SMILES: O=C(O)CNCP(=O)(O)O [glyphosate]
- Escape rate ([2]; cotton ball, 100 μM glyphosate): 2.1%
- Number of events ([2]; cotton ball, 100 μM glyphosate): 16
- Transformation Frequency ([2]; cotton ball, 100 μM glyphosate): 33.3%
- Escape rate ([2]; cotton ball, 125 μM glyphosate): 0.0%
- Number of events ([2]; cotton ball, 125 μM glyphosate): 25
- Transformation Frequency ([2]; cotton ball, 125 μM glyphosate): 52.1%
- Escape rate ([2]; cotton ball, 150 μM glyphosate): 0.0%
- Number of events ([2]; cotton ball, 150 μM glyphosate): 24
- Transformation Frequency ([2]; cotton ball, 150 μM glyphosate): 50.0%
- Number of events ([2]; cotton ball, 175 μM glyphosate): 23
- Transformation Frequency ([2]; cotton ball, 175 μM glyphosate): 47.9%
- Escape rate ([2]; daily spray, 100 μM glyphosate): 2.1%
- Number of events ([2]; daily spray, 100 μM glyphosate): 11
- Transformation Frequency ([2]; daily spray, 100 μM glyphosate): 22.9%
- Escape rate ([2]; daily spray, 125 μM glyphosate): 6.3%
- Number of events ([2]; daily spray, 125 μM glyphosate): 13
- Transformation Frequency ([2]; daily spray, 125 μM glyphosate): 27.1%
- Escape rate ([2]; daily spray, 150 μM glyphosate): 2.1%
- Number of events ([2]; daily spray, 150 μM glyphosate): 20
- Transformation Frequency ([2]; daily spray, 150 μM glyphosate): 41.7%
- Escape rate ([2]; daily spray, 175 μM glyphosate): 6.3%
- Number of events ([2]; daily spray, 175 μM glyphosate): 22
- Transformation Frequency ([2]; daily spray, 175 μM glyphosate): 45.8%
- Escape rate ([2]; daily spray, 200 μM glyphosate): 6.3%
- Number of events ([2]; daily spray, 200 μM glyphosate): 20
- Transformation Frequency ([2]; daily spray, 200 μM glyphosate): 41.7%
- Escape rate ([2]; daily spray, 250 μM glyphosate): 4.2%
- Number of events ([2]; daily spray, 250 μM glyphosate): 15
- Transformation Frequency ([2]; daily spray, 250 μM glyphosate): 31.3%
- Escape rate ([2]; daily spray, 300 μM glyphosate): 2.1%
- Number of events ([2]; daily spray, 300 μM glyphosate): 23
- Transformation Frequency ([2]; daily spray, 300 μM glyphosate): 47.9%

SMILES: COC(=O)c1ccccc1CS(=O)(=O)NC(=O)Nc1nc(OC)cc(OC)n1 [bensulfuron-methyl]
- escape events recovered ([3]; 3 μM or higher concentrations of bensulfuron-methyl): No escape event
- Escape rate [3, 12]: 0.0%
- Number of events [3, 12]: 16
- TF [3, 12]: 40.0%
- Escape rate [3, 13]: 0.0%
- Number of events [3, 13]: 13
- TF [3, 13]: 27.1%
- Escape rate [3, 14]: 0.0%
- Number of events [3, 14]: 9
- TF [3, 14]: 18.8%
- Escape rate [3, 15]: 0.0%
- Number of events [3, 15]: 18
- TF [3, 15]: 37.5%
- Escape rate [3, 16]: 0.0%
- Number of events [3, 16]: 10
- TF [3, 16]: 20.8%
- Escape rate [3, 17]: 0.0%
- Number of events [3, 17]: 10
- TF [3, 17]: 20.8%
- Escape rate [3, 18]: 0.0%
- Number of events [3, 18]: 10
- TF [3, 18]: 20.8%
- Escape rate [3, 19]: 0.0%
- Number of events [3, 19]: 6
- TF [3, 19]: 12.5%
- Escape rate [3, 20]: 0.0%
- Number of events [3, 20]: 11
- TF [3, 20]: 22.9%
- Escape rate [3, 21]: 0.0%
- Number of events [3, 21]: 12
- TF [3, 21]: 25.0%
- Escape rate [3, 22]: 0.0%
- Number of events [3, 22]: 8
- TF [3, 22]: 16.7%
- Number of escapes [1, 23]: 0
- Number of events [1, 23]: 12
- Transformation frequency (%) [1, 23]: 21.4%
